Kd data for one molecule are collected here from article PMC12594171, “DKK3-LRP1 complex and a chemical inhibitor regulate Aβ clearance in models of Alzheimer’s disease” (Science Advances, 2025).

This experiment has as its target low-density lipoprotein receptor-related protein 1 (LRP1), minireceptor mLRPIV (Homo sapiens, UniProt Q07954). The experiment in a line: SPR (Biacore T200, mLRPIV immobilized on CM5 chip); also inhibits DKK3 binding to mLRPIV by SPR, IC50 […]. (SPR reads the build-up and loss of mass on a sensor chip optically.)

Chain of low-density lipoprotein receptor-related protein 1 (LRP1), minireceptor mLRPIV (Q07954 3331-3778 limits assumed): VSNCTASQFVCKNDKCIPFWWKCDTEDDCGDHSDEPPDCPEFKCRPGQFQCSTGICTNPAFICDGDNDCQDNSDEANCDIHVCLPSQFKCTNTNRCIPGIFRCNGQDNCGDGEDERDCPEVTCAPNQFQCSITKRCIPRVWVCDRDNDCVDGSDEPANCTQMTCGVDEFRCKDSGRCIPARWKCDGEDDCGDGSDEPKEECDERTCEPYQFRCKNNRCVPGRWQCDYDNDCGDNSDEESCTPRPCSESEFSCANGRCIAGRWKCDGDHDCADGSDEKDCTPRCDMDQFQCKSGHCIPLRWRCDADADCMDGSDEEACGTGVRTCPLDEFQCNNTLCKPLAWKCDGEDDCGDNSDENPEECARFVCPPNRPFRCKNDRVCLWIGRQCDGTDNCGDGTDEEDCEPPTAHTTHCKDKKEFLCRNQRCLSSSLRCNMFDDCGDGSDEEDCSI

With `Cc1nn(-c2ccc(F)cc2)c(C)c1CNC1CCN(C2CC2)CC1` [SJ-300], binding was characterised by a dissociation constant (Kd) of 7.9 µM.

The term Kd denotes the constant that tells how readily two partners part at equilibrium. Read a low Kd as tighter binding.
